Source: publication PMC7442744 (Journal of the American Chemical Society, 2020)

Molecular target: human SQOR (sulfide quinone oxidoreductase) (Homo sapiens, UniProt Q9Y6N5)
Assay: absorption spectroscopy, charge transfer complex formation
Assay type: binding
Conditions: covalent; 5 mM sulfite, 5 μM native SQOR, 20 °C, 1 min

human SQOR (sulfide quinone oxidoreductase), sequence (Q9Y6N5 42-450): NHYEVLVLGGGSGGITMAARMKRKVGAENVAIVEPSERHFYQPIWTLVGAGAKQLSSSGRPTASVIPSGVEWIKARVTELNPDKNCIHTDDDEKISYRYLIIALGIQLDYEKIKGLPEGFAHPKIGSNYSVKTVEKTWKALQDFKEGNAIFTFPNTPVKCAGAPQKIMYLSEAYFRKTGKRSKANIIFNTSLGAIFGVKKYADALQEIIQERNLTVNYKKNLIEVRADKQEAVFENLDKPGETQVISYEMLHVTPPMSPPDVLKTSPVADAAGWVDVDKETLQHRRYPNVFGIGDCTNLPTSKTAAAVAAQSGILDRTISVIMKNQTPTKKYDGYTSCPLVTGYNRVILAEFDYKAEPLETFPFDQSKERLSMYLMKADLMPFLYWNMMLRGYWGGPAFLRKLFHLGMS

O=S(O)O [sulfite]
absorption spectroscopy, charge transfer complex formation: sulfite treatment, which forms a strong CT complex when added to native SQOR
